Test results taken from ChEMBL document CHEMBL4765295, “Synthesis, pharmacological profile and 2D-QSAR studies of curcumin-amino acid conjugates as potential drug candidates” (Eur J Med Chem, 2020).
Values after ≈ are worked out from the molar mass of the structure shown. Values joined by “and” are separate entries in the source; they are usually repeats but may differ in a detail not shown here. Identical values can stand only once.

Tests used:
Mus musculus [1] = test: Analgesic activity in albino mouse assessed as protection at 10 mg/kg, ip measured after 120 mins by hot plate test relative to indomethacin; assay type: functional; conditions: 2 h
Rattus norvegicus [2] = test: Anti-inflammatory activity in Wistar rat assessed as inhibition of carrageenan-induced paw edema at 10 mg/kg, ip pretreated for 1 hr followed by carrageenan challenge and measured after 1 hr relative to control (reference value: 0.00 +/-0.02 %); assay type: functional; conditions: time 2 hrs
Staphylococcus aureus = test: Antibacterial activity against Staphylococcus aureus ATCC 25923 incubated for 18 hrs by agar dilution method; assay type: functional
Mus musculus [3] = test: Analgesic activity in albino mouse assessed protection against acetic acid-induced abdominal writhing at 10 mg/kg, ip pretreated for 1 hr followed by acetic acid challenge and measured starting 5 mins post acetic acid challenge for 10 mins relative to control (reference value: 0 %); assay type: functional; conditions: time 75 min, 1.25 h
[4] = Ulcerogenic activity in fasted albino mouse assessed as incidence of gastric ulceration at 10 mg/kg, po for 3 days (reference value: 0 %); assay type: toxicity, organism-based; conditions: in vivo, 72 h, time 3 day
Rattus norvegicus [5] = test: Anti-inflammatory activity in Wistar rat assessed as inhibition of carrageenan-induced paw edema at 10 mg/kg, ip pretreated for 1 hr followed by carrageenan challenge and measured after 3 hr relative to control (reference value: 0.00 +/-0.1 %); assay type: functional; conditions: time 4 hrs
Rattus norvegicus [6] = test: Antiinflammatory activity in Wistar rat model of carrageenan-induced paw edema assessed as reduction in thickness of paw edema at 10 mg/kg, ip pretreated for 1 hr followed by carrageenan challenge and measured after 24 hrs (reference value: 0.83 +/-0.08 mm); assay type: functional; conditions: time 25 hrs
Rattus norvegicus [7] = test: Anti-inflammatory activity in Wistar rat assessed as inhibition of carrageenan-induced paw edema at 10 mg/kg, ip pretreated for 1 hr followed by carrageenan challenge and measured after 24 hr relative to control (reference value: 0.00 +/-0.3 %); assay type: functional; conditions: time 25 hrs
Splenocyte [8] = test: Immunomodulatory activity in Swiss albino mouse splenocytes assessed as cell viability at 10 uM by measuring inhibition of stimulation index incubated for 72 hrs in presence of mitogenic stimulus phytohaemagglutinin by MTT assay relative to indomethacin; assay type: functional; conditions: read-out: Activity
Splenocyte [9] = test: Immunomodulatory activity in Swiss albino mouse splenocytes assessed as cell viability at 10 uM by measuring stimulation index incubated for 72 hrs in presence of mitogenic stimulus phytohaemagglutinin by MTT assay (reference value: 1.00 +/- 0.24); assay type: functional
Peritoneal macrophage [10] = test: Antiinflammatory activity in […] mouse Peritoneal macrophages assessed as inhibition of LPS-induced NO production at 10 uM preincubated for 1 hr followed by LPS stimulation measured after 24 hrs by Griess method relative to control (reference value: 0.0 %); assay type: functional; parameters: scale not given: the % may be the effect or the level left; conditions: time 25 hrs
Mus musculus [11] = test: Analgesic activity in albino mouse assessed protection against acetic acid-induced abdominal writhing at 10 mg/kg, ip pretreated for 1 hr followed by acetic acid challenge and measured starting 5 mins post acetic acid challenge for 10 mins relative to indomethacin; assay type: functional; conditions: time 75 min, 1.25 h
[12] = Ulcerogenic activity in fasted albino mouse assessed as ulcer index in gastric mucosa at 10 mg/kg, po for 3 days (reference value: 0); assay type: toxicity, organism-based; conditions: in vivo, 72 h, time 3 day
Mus musculus [13] = test: Analgesic activity in albino mouse assessed as protection at 10 mg/kg, ip measured after 90 mins by hot plate test (reference value: 0 %); assay type: functional; conditions: 1.5 h
Streptococcus pyogenes = test: Antibacterial activity against Streptococcus pyogenes ATCC 19615 incubated for 18 hrs by agar dilution method; assay type: functional
Mus musculus [14] = test: Analgesic activity in albino mouse assessed reduction in acetic acid-induced abdominal writhing by measuring writing reflex at 10 mg/kg, ip pretreated for 1 hr followed by acetic acid challenge and measured starting 5 mins post acetic acid challenge for 10 mins (reference value: 42.4 +/- 1.02); assay type: functional; conditions: time 75 min, 1.25 h
Mus musculus [15] = test: Analgesic activity in albino mouse assessed as forepaw licking/jumping latency time at 10 mg/kg, ip measured after 60 mins by hot plate test (reference value: 3.42 +/- 0.03 sec); assay type: functional; conditions: 1 h
Rattus norvegicus [16] = test: Antiinflammatory activity in Wistar rat model of carrageenan-induced paw edema assessed as reduction in thickness of paw edema at 10 mg/kg, ip pretreated for 1 hr followed by carrageenan challenge and measured after 1 hr (reference value: 2.41 +/-0.05 mm); assay type: functional; conditions: time 1 hr after carrageenan
Rattus norvegicus [17] = test: Anti-inflammatory activity in Wistar rat assessed as inhibition of carrageenan-induced paw edema at 10 mg/kg, ip pretreated for 1 hr followed by carrageenan challenge and measured after 4 hr relative to indomethacin; assay type: functional; conditions: time 5 hrs
Mus musculus [18] = test: Analgesic activity in albino mouse assessed as forepaw licking/jumping latency time at 10 mg/kg, ip measured after 90 mins by hot plate test (reference value: 2.72 +/- 0.01 sec); assay type: functional; conditions: 1.5 h
Mus musculus [19] = test: Analgesic activity in albino mouse assessed as forepaw licking/jumping latency time at 10 mg/kg, ip measured after 30 mins by hot plate test (reference value: 5.02 +/- 0.09 sec); assay type: functional; conditions: 0.5 h
Mus musculus [20] = test: Analgesic activity in albino mouse assessed as protection at 10 mg/kg, ip measured after 30 mins by hot plate test (reference value: 0 %); assay type: functional; conditions: 0.5 h
Mus musculus [21] = test: Analgesic activity in albino mouse assessed as protection at 10 mg/kg, ip measured after 120 mins by hot plate test (reference value: 0 %); assay type: functional; conditions: 2 h
Rattus norvegicus [22] = test: Antiinflammatory activity in Wistar rat model of carrageenan-induced paw edema assessed as reduction in thickness of paw edema at 10 mg/kg, ip pretreated for 1 hr followed by carrageenan challenge and measured after 4 hrs (reference value: 1.40 +/-0.10 mm); assay type: functional; conditions: time 5 hrs
Candida albicans = test: Antifungal activity against Candida albicans incubated for 18 to 24 hrs by CLSI method; assay type: functional; conditions: time 18-24 hrs
[23] = Ulcerogenic activity in fasted albino mouse assessed as average severity of ulcers in gastric mucosa at 10 mg/kg, po for 3 days (reference value: 0); assay type: toxicity, organism-based; conditions: in vivo, 72 h, time 3 day
Mus musculus [24] = test: Analgesic activity in albino mouse assessed as protection at 10 mg/kg, ip measured after 60 mins by hot plate test (reference value: 0 %); assay type: functional; conditions: 1 h
Peritoneal macrophage [25] = test: Antiinflammatory activity in […] mouse Peritoneal macrophages assessed as reduction in LPS-induced NO production by measuring reduction in stimulation index at 10 uM preincubated for 1 hr followed by LPS stimulation measured after 24 hrs by Griess method (reference value: 27.31 +/- 2.56 uM); assay type: functional; conditions: time 25 hrs
Pseudomonas aeruginosa = test: Antibacterial activity against Pseudomonas aeruginosa ATCC 27853 incubated for 18 hrs by agar dilution assay; assay type: functional
Mus musculus [26] = test: Analgesic activity in albino mouse assessed as forepaw licking/jumping latency time at 10 mg/kg, ip measured after 120 mins by hot plate test (reference value: 2.62 +/- 0.06 sec); assay type: functional; conditions: 2 h
Rattus norvegicus [27] = test: Anti-inflammatory activity in Wistar rat assessed as inhibition of carrageenan-induced paw edema at 10 mg/kg, ip pretreated for 1 hr followed by carrageenan challenge and measured after 2 hr relative to control (reference value: 0.00 +/-0.03 %); assay type: functional; conditions: time 3 hrs
[28] = Ulcerogenic activity in fasted albino mouse assessed as average number of ulcers in gastric mucosa at 10 mg/kg, po for 3 days (reference value: 0); assay type: toxicity, organism-based; conditions: in vivo, 72 h, time 3 day
Rattus norvegicus [29] = test: Antiinflammatory activity in Wistar rat model of carrageenan-induced paw edema assessed as reduction in thickness of paw edema at 10 mg/kg, ip pretreated for 1 hr followed by carrageenan challenge and measured after 3 hrs (reference value: 1.79 +/-0.07 mm); assay type: functional; conditions: time 4 hrs
Salmonella typhimurium = test: Antibacterial activity against Salmonella typhimurium ATCC 19430 incubated for 18 hrs by agar dilution assay; assay type: functional, Salmonella enterica subsp. enterica serovar Typhimurium; conditions: Salmonella enterica
Rattus norvegicus [30] = test: Anti-inflammatory activity in Wistar rat assessed as inhibition of carrageenan-induced paw edema at 10 mg/kg, ip pretreated for 1 hr followed by carrageenan challenge and measured after 4 hr relative to control (reference value: 0.00 +/-0.4 %); assay type: functional; conditions: time 5 hrs
Rattus norvegicus [31] = test: Antiinflammatory activity in Wistar rat model of carrageenan-induced paw edema assessed as reduction in thickness of paw edema at 10 mg/kg, ip pretreated for 1 hr followed by carrageenan challenge and measured after 2 hrs (reference value: 2.06 +/-0.09 mm); assay type: functional; conditions: time 3 hrs

Row | SMILES | Activity (Mus musculus [1]) | inhibition in vivo at 10 mg/kg (Rattus norvegicus [2]) | Activity (Mus musculus [3]) | Activity [4] | inhibition in vivo at 10 mg/kg (Rattus norvegicus [5]) | Activity (Rattus norvegicus [6]) | inhibition in vivo at 10 mg/kg (Rattus norvegicus [7]) | Activity (Mus musculus [11]) | Activity (Mus musculus [13]) | Activity (Mus musculus [14]) | Time (Mus musculus [15]) | Activity (Rattus norvegicus [16]) | inhibition in vivo at 10 mg/kg (Rattus norvegicus [17]) | Time (Mus musculus [18]) | Time (Mus musculus [19]) | Activity (Rattus norvegicus [22]) | inhibition in vivo at 10 mg/kg (Rattus norvegicus [27]) | Activity (Rattus norvegicus [29]) | inhibition in vivo at 10 mg/kg (Rattus norvegicus [30]) | Activity (Rattus norvegicus [31]) | also measured
1 | COc1cc(/C=C/C(=O)CC(=O)/C=C/c2ccc(O)c(OC)c2)ccc1O [CURCUMIN] | 76.4% | 12% | 52.1% | 3.33% | 75% | 0.53 mm | 36% | 84.6% | 66.9% | 20.3 | 4.62 s | 2.12 mm | 98% | 4.54 s | 5.04 s | 0.21 mm | 60% | 0.45 mm | 85% | 0.82 mm | MIC (Staphylococcus aureus): 0.339 µM (≈ 0.125 µg/mL); viability at 10 µM (Splenocyte [8]): 79.5%; Activity_index (Splenocyte [9]): 1.52; Activity (Peritoneal macrophage [10]): 37.11%; UI [12]: 3.99; MIC (Streptococcus pyogenes): 0.125 µg/mL and 0.339 µM; Activity (Mus musculus [20]): 0.4%; Activity (Mus musculus [21]): 32.1%; MIC (Candida albicans): 0.125 µg/mL and 0.339 µM; Activity [23]: 0.33; Activity (Mus musculus [24]): 35.1%; Activity (Peritoneal macrophage [25]): 17.18 µM; MIC (Pseudomonas aeruginosa): 0.125 µg/mL and 0.339 µM; Time (Mus musculus [26]): 3.46 s; Activity [28]: 0.33; MIC (Salmonella typhimurium): 0.125 µg/mL and 0.339 µM
2 | CC(C)Cc1ccc(C(C)C(=O)O)cc1 (centres undefined) [IBUPROFEN] | 78.1% | 20% | 42.9% | 3.33% | 65% | 0.71 mm | 14% | 69.6% | 51.5% | 24.2 | 5.12 s | 1.93 mm | 91% | 4.12 s | 5.4 s | 0.29 mm | 60% | 0.63 mm | 79% | 0.82 mm | Activity (Mus musculus [20]): 7.6%; Activity (Mus musculus [21]): 32.8%; Activity [23]: 0.67; Activity (Mus musculus [24]): 49.7%; Time (Mus musculus [26]): 3.48 s; Activity [28]: 0.33
3 | COc1cc(/C=C/C(=O)/C=C(O)/C=C/c2ccc(OC(=O)[C@@H](NC(=O)OCC3c4ccccc4-c4ccccc43)C(C)C)c(OC)c2)ccc1OC(=O)[C@@H](NC(=O)OCC1c2ccccc2-c2ccccc21)C(C)C |  | 22% |  |  | 50% | 0.44 mm | 47% |  |  |  |  | 1.88 mm | 61% |  |  | 0.66 mm | 49% | 0.9 mm | 53% | 1.05 mm | MIC (Staphylococcus aureus): 0.25 µg/mL and 0.247 µM; viability at 10 µM (Splenocyte [8]): 47.5%; Activity_index (Splenocyte [9]): 2.55; Activity (Peritoneal macrophage [10]): 12.46%; MIC (Streptococcus pyogenes): 0.5 µg/mL and 0.494 µM; MIC (Candida albicans): 0.5 µg/mL and 0.494 µM; Activity (Peritoneal macrophage [25]): 23.91 µM; MIC (Pseudomonas aeruginosa): 0.5 µg/mL and 0.494 µM; MIC (Salmonella typhimurium): 0.5 µg/mL and 0.494 µM
4 | COc1ccc2c(c1)c(CC(=O)O)c(C)n2C(=O)c1ccc(Cl)cc1 [INDOMETHACIN] | 100% | 53% | 61.6% | 10% | 67% | 0.12 mm | 86% | 100% | 41.2% | 16.3 | 5.26 s | 1.11 mm | 100% | 3.84 s | 6.3 s | 0.18 mm | 59% | 0.59 mm | 87% | 0.85 mm | UI [12]: 13.67; Activity (Mus musculus [20]): 25.5%; Activity (Mus musculus [21]): 42%; Activity [23]: 1.67; Activity (Mus musculus [24]): 53.8%; Time (Mus musculus [26]): 3.72 s; Activity [28]: 2
